From patent US20150335738A1 (priority 2012, published 2015)

Tested on: human SIgA in faeces
Assay type: in vivo

For `CC1=C(/C=C/C(C)=C/C=C/C(C)=C/C=C/C=C(C)/C=C/C=C(C)/C=C/C2=C(C)CCCC2(C)C)C(C)(C)CCC1` [Beta-carotene, beta-carotene], the “SIgA faeces, 3 days before exercise” value (3 days before exercise) was 88 micrograms per 100 g faeces, the Recovery in faeces (Reference (before exercise) = 100%) was 13% and the “SIgA faeces, day 1 after exercise” value (day 1 after exercise) was 8 micrograms per 100 g faeces. The “SIgA faeces, day 6 after exercise” value (day 6 after exercise) was 11 micrograms per 100 g faeces.
